Reference: article PMC3220932 (Pulmonary pharmacology & therapeutics, 2011)

Tests used:
[1] = system: human bronchial smooth muscle cells; type: cell-based; conditions: for IC50: read-out: IC50 for rapidly inhibiting formoterol uptake by human bronchial smooth muscle cells, 200 nmol/l [3H]-formoterol, mean, n = 6
[2] = system: human airway epithelial cells; assay: Corticosteroid effect on tritiated drug uptake by airway epithelial cells; type: cell-based; conditions: 5 μmol/l
OCT3 = molecular target: T1, OCT3 (Homo sapiens, UniProt O75751); conditions: bronchial smooth muscle cells, OCT3 targeted shRNA
T1 sequence (O75751 1-556): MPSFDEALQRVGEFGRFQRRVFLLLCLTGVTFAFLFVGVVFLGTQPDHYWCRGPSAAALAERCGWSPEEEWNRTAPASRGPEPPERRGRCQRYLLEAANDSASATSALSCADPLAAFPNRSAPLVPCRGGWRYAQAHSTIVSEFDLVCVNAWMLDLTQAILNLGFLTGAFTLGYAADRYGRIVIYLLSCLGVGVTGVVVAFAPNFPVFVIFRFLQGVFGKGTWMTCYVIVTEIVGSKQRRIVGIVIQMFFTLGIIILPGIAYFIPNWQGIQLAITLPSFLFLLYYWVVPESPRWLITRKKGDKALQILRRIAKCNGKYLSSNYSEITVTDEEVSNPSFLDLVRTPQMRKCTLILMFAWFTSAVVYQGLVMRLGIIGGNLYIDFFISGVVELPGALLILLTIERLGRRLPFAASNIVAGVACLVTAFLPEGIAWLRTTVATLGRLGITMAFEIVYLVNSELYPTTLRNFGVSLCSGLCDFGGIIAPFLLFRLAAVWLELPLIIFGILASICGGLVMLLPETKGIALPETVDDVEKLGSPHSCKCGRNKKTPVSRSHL

[3] = system: human airway epithelial cells; assay: Cellular drug uptake by airway epithelial cells; conditions: 37°C, 15 min; for cellular uptake in airway epithelial cells: 200 nmol/l [3H]-formoterol or [3H]-salmeterol
[4] = system: human bronchial smooth muscle cells; assay: Cellular drug uptake by bronchial smooth muscle cells; conditions: 37°C, 15 min; for cellular uptake in smooth muscle cells: 200 nmol/l [3H]-formoterol or [3H]-salmeterol

CCC(=O)O[C@]1(C(=O)CO)[C@@H](C)C[C@H]2[C@@H]3CCC4=CC(=O)C=C[C@]4(C)[C@@]3(Cl)[C@@H](O)C[C@@]21C [Beclomethasone 17-monopropionate]
IC50 ([1]; 15-min incubation): 4.04 µM

C[C@]12C[C@H](O)[C@H]3[C@@H](CCC4=CC(=O)CC[C@@]43C)[C@@H]1CC[C@@H]2C(=O)CO [Corticosterone]
effect on MPP+ uptake by airway epithelial cells ([2]; 15-min incubation): but not airway epithelial cells
effect on salmeterol uptake in epithelial cells ([2]; 15 min): insensitive to corticosterone
rapid inhibitory effect on formoterol uptake in epithelial cells ([2]; 15 min): not in epithelial cells
action on formoterol uptake in presence of transcription inhibitor actinomycin D ([1]; 5 μM, 100 μM actinomycin D added 60 min prior to transport measurements): insensitive
effect on MPP+ uptake by bronchial smooth muscle cells ([1]; 5 μmol/l, 15-min incubation): significantly reduced
effect on salmeterol uptake in bronchial smooth muscle cells ([1]; 5 μmol/l, 15 min): insensitive to corticosterone
inhibitory action on formoterol uptake after pretreatment for 45 or 90 min ([1]; 5 μmol/l, bronchial smooth muscle cells): not enhanced
inhibitory effect on formoterol uptake under OCT3 mRNA suppression (OCT3): reduces

CCC(=O)O[C@]1(C(=O)SCF)[C@H](C)C[C@H]2[C@@H]3C[C@H](F)C4=CC(=O)C=C[C@]4(C)[C@@]3(F)[C@@H](O)C[C@@]21C [Fluticasone propionate]
IC50 ([1]; 15-min incubation): 6.29 µM

C[n+]1ccc(-c2ccccc2)cc1 [MPP^+, N-methyl-4-phenylpyridinium]
cellular uptake of MPP+ in epithelial cells ([3]; 5 nmol/l [3H]-MPP+): 0.18 ± 0.03 pmol/mg protein/15 min
cellular uptake of MPP+ in smooth muscle cells ([4]; 5 nmol/l [3H]-MPP+): 0.21 ± 0.02 pmol/mg protein/15 min

COc1ccc(CC(C)NCC(O)c2ccc(O)c(NC=O)c2)cc1 (stereo not shown) [formoterol]
cellular uptake in airway epithelial cells [3]: 8.9 ± 0.5 pmol/mg protein/15 min
cellular uptake in smooth muscle cells [4]: 28.1 ± 1.6 pmol/mg protein/15 min

OCc1cc(C(O)CNCCCCCCOCCCCc2ccccc2)ccc1O (stereo not shown) [salmeterol]
cellular uptake in airway epithelial cells [3]: 46.6 ± 1.9 pmol/mg protein/15 min
cellular uptake in smooth muscle cells [4]: 306.9 ± 13.3 pmol/mg protein/15 min
